In publication PMC9037111, “Structure-based design, synthesis, and biological evaluation of novel piperine–resveratrol hybrids as antiproliferative agents targeting SIRT-2” (RSC Advances, 2021):
Where two headings read alike, the source gives them in different places.

What was measured:
Experiment in all cases: cells
Design in all cases: species or system NCI-60 human tumour cell lines; NCI-60 one-dose screen at 10 uM, percent growth inhibition versus untreated control cells
UO-31 = settings: Homo sapiens, UO-31, growth inhibition, one dose
Protocol: (§1) The antiproliferative activity of the target compounds 5a–h was screened against a panel of 60 cancer cell lines according to NCI-guidelines at concentration of 10 μM. The results for each compound (Table 1) were recorded as the percent of growth inhibition of treated cells compared to untreated control cells. […] In addition, 5b recorded significant activity against leukemia cancer cell lines K-562 and MOLT-4, Non-small cell lung cancer cell lines NCI-H322M and NCI-H460, Colon cancer cell lines COLO 205, HCT-15 and HCT-116, CNS cancer cell lines SF-295 and SF-539, Melanoma cancer cell lines LOX IMVI and UACC-62, Ovarian cancer cell lines NCI/ADR-RES, OVCAR-3, and OVCAR-4, Renal cancer cell lines CAKI-1, ACHN, and UO-31, and Breast cancer MCF7 cell line with growth inhibition percentage between 80 to 95. […] The methodology of the NCI anticancer screening has been described in detail elsewhere (https://dtp.cancer.gov/).[52]

SNB-75 = settings: Homo sapiens, SNB-75, growth inhibition, one dose
Protocol: as §1

SF-268 = settings: Homo sapiens, SF-268, growth inhibition, one dose
Protocol: as §1

SR = settings: Homo sapiens, SR, growth inhibition, one dose
Protocol: as §1

HL-60(TB) = settings: Homo sapiens, HL-60, growth inhibition, one dose
Protocol: as §1

MOLT-4 = settings: Homo sapiens, MOLT-4, growth inhibition, one dose
Protocol: as §1

IGROV1 = settings: Homo sapiens, IGROV-1, growth inhibition, one dose
Protocol: as §1

T-47D = settings: Homo sapiens, T47D, growth inhibition, one dose
Protocol: as §1

PC-3 = settings: Homo sapiens, PC-3, growth inhibition, one dose
Protocol: as §1

NCI-H226 = settings: Homo sapiens, NCI-H226, growth inhibition, one dose
Protocol: as §1

SNB-19 = settings: Homo sapiens, SNB-19, growth inhibition, one dose
Protocol: as §1

MALME-3M = settings: Homo sapiens, Malme-3M, growth inhibition, one dose
Protocol: as §1

DU-145 = settings: Homo sapiens, DU-145, growth inhibition, one dose
Protocol: as §1

U251 = settings: Homo sapiens, U-251, growth inhibition, one dose
Protocol: as §1

SN12C = settings: Homo sapiens, SN12C, growth inhibition, one dose
Protocol: as §1

HCC-2998 = settings: Homo sapiens, HCC 2998, growth inhibition, one dose
Protocol: as §1

OVCAR-5 = settings: Homo sapiens, OVCAR-5, growth inhibition, one dose
Protocol: as §1

HOP-92 = settings: Homo sapiens, HOP-92, growth inhibition, one dose
Protocol: as §1

[1] = read-out: Growth% inhibition / 5a
[2] = read-out: Growth% inhibition / 5e
[3] = read-out: Growth% inhibition / 5d
[4] = read-out: Growth% inhibition / 5b

Which results are given for `O=C(/C=C/C=C/c1ccc2c(c1)OCO2)NN=Cc1ccc(O)cc1` [5a, (2E,4E)-5-(Benzo[d][1,3]dioxol-5-yl)-N′-((E,Z)-4-hydroxybenzylidene)penta-2,4-dienehydrazide]?
inhibition at 10 µM (UO-31; [1]): 39.2%; inhibition at 10 µM (SNB-75; [1]): 27%; inhibition at 10 µM (SF-268; [1]): 17.1%; inhibition at 10 µM (SR; [1]): 64%; inhibition at 10 µM (HL-60(TB); [1]): 44.1%; inhibition at 10 µM (MOLT-4; [1]): 23.5%; inhibition at 10 µM (IGROV1; [1]): 24.7%; inhibition at 10 µM (T-47D; [1]): 18.6%; inhibition at 10 µM (PC-3; [1]): 19.8%

How did the inhibition at 10 µM (NCI-H226; [2]) turn out when `CCN(CC)c1ccc(/C=N/NC(=O)/C=C/C=C/c2ccc3c(c2)OCO3)c(O)c1` [5e, (2E,4E)-5-(Benzo[d][1,3]dioxol-5-yl)-N′-((E)-4-(diethylamino)-2-hydroxybenzylidene)penta-2,4-dienehydrazide] was run?
Its inhibition at 10 µM is 50.5%.

And the inhibition at 10 µM (SNB-19; [2])?
The inhibition at 10 µM was 39%.

And the inhibition at 10 µM (MALME-3M; [2])?
The inhibition at 10 µM was 43.5%.

What about the inhibition at 10 µM (UO-31; [2]) of the same compound?
The inhibition at 10 µM was 75%.

And the inhibition at 10 µM (DU-145; [2])?
The inhibition at 10 µM was 46.8%.

What about the inhibition at 10 µM (U251; [2]) of the same compound?
The inhibition at 10 µM was 56.8%.

And the inhibition at 10 µM (SNB-75; [2])?
Its inhibition at 10 µM is 41.2%.

What about the inhibition at 10 µM (SN12C; [2]) of the same compound?
Its inhibition at 10 µM is 45.9%.

And the inhibition at 10 µM (HCC-2998; [2])?
The inhibition at 10 µM was 46%.

And the inhibition at 10 µM (OVCAR-5; [2])?
The inhibition at 10 µM was 39.1%.

And the inhibition at 10 µM (SF-268; [2])?
Its inhibition at 10 µM is 66.3%.

What about the inhibition at 10 µM (SR; [2]) of the same compound?
The inhibition at 10 µM was 82.4%.

What about the inhibition at 10 µM (HL-60(TB); [2]) of the same compound?
The inhibition at 10 µM was 97.3%.

And the inhibition at 10 µM (MOLT-4; [2])?
The inhibition at 10 µM was 81.7%.

And the inhibition at 10 µM (IGROV1; [2])?
Its inhibition at 10 µM is 61.8%.

What about the inhibition at 10 µM (T-47D; [2]) of the same compound?
Its inhibition at 10 µM is 73.7%.

And the inhibition at 10 µM (HOP-92; [2])?
Its inhibition at 10 µM is 51.6%.

And the inhibition at 10 µM (PC-3; [2])?
Its inhibition at 10 µM is 59.1%.

Which results are given for `CN(C)c1ccc(C=NNC(=O)/C=C/C=C/c2ccc3c(c2)OCO3)cc1` (mixture of isomers) [5d, (2E,4E)-5-(Benzo[d][1,3]dioxol-5-yl)-N′-((E/Z)-4-(dimethylamino)-benzylidene)penta-2,4-dienehydrazide]?
inhibition at 10 µM (UO-31; [3]): 23.7%; inhibition at 10 µM (SNB-75; [3]): 25.7%; inhibition at 10 µM (SR; [3]): 62%; inhibition at 10 µM (IGROV1; [3]): 10.1%; inhibition at 10 µM (PC-3; [3]): 15%

For `O=C(/C=C/C=C/c1ccc2c(c1)OCO2)N/N=C/c1ccc(O)cc1O` [5b, (2E,4E)-5-(Benzo[d][1,3]dioxol-5-yl)-N′-((E)-2,4-dihydroxybenzylidene)penta-2,4-dienehydrazide], which inhibition at 10 µM (NCI-H226; [4]) is on record?
The inhibition at 10 µM was 62.4%.

And the inhibition at 10 µM (SNB-19; [4])?
Its inhibition at 10 µM is 50.9%.

And the inhibition at 10 µM (MALME-3M; [4])?
Its inhibition at 10 µM is 59.7%.

What about the inhibition at 10 µM (UO-31; [4]) of the same compound?
The inhibition at 10 µM was 88.6%.

What about the inhibition at 10 µM (DU-145; [4]) of the same compound?
The inhibition at 10 µM was 50%.

What about the inhibition at 10 µM (U251; [4]) of the same compound?
Its inhibition at 10 µM is 68.7%.

What about the inhibition at 10 µM (SNB-75; [4]) of the same compound?
Its inhibition at 10 µM is 36%.

And the inhibition at 10 µM (SN12C; [4])?
The inhibition at 10 µM was 67.2%.

What about the inhibition at 10 µM (HCC-2998; [4]) of the same compound?
The inhibition at 10 µM was 61.1%.

And the inhibition at 10 µM (OVCAR-5; [4])?
The inhibition at 10 µM was 57.5%.

What about the inhibition at 10 µM (SF-268; [4]) of the same compound?
Its inhibition at 10 µM is 75.6%.

And the inhibition at 10 µM (SR; [4])?
The inhibition at 10 µM was 78.7%.

And the inhibition at 10 µM (MOLT-4; [4])?
Its inhibition at 10 µM is 86.7%.

And the inhibition at 10 µM (IGROV1; [4])?
The inhibition at 10 µM was 71.1%.

What about the inhibition at 10 µM (T-47D; [4]) of the same compound?
Its inhibition at 10 µM is 76.1%.

What about the inhibition at 10 µM (HOP-92; [4]) of the same compound?
Its inhibition at 10 µM is 46.6%.

And the inhibition at 10 µM (PC-3; [4])?
The inhibition at 10 µM was 62%.
